Publication PMC7747971 (Plant Communications, 2020)

How the values were obtained:
AtTPS19 = AtTPS19 (Arabidopsis thaliana, UniProt Q9LUE0); format: cell-based
AtTPS22 = target: T1, AtTPS22 (Arabidopsis thaliana, UniProt Q9LQ27); format: cell-based
T1 sequence (Q9LQ27 57-603): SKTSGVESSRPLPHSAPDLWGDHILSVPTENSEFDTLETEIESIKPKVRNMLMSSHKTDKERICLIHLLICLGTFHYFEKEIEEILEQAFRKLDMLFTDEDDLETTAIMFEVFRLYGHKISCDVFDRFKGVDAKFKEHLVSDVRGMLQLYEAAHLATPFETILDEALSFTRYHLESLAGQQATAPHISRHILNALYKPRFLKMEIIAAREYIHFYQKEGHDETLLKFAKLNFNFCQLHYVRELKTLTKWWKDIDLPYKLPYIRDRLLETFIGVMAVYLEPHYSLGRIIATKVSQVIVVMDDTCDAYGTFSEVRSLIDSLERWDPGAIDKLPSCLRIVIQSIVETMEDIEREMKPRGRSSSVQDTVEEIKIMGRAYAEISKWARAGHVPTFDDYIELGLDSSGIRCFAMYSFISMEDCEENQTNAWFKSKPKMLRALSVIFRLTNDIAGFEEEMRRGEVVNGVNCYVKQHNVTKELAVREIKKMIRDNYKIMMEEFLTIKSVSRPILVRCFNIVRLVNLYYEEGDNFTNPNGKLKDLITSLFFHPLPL

AtTPS06 = target: T2, AtTPS06 (Arabidopsis thaliana, UniProt Q84UU9); format: cell-based
T2 sequence (Q84UU9 53-611): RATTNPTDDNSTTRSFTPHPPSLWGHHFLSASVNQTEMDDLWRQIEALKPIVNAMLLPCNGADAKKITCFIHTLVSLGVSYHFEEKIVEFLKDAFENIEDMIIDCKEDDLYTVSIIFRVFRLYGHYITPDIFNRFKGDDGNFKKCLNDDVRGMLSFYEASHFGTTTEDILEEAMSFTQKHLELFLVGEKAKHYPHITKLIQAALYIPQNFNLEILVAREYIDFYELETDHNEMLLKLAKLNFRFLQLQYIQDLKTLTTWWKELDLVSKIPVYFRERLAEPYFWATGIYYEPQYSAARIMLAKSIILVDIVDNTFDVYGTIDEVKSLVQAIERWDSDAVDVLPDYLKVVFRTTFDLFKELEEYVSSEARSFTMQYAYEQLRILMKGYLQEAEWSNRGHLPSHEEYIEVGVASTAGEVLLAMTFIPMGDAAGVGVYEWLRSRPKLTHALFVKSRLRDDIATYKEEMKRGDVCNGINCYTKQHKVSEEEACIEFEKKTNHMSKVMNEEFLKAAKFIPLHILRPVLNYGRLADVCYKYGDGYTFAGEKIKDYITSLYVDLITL

AtTPS29 = AtTPS29 (Arabidopsis thaliana, UniProt Q9C6W6); format: cell-based
Sequence of AtTPS29 (Q9C6W6 51-607): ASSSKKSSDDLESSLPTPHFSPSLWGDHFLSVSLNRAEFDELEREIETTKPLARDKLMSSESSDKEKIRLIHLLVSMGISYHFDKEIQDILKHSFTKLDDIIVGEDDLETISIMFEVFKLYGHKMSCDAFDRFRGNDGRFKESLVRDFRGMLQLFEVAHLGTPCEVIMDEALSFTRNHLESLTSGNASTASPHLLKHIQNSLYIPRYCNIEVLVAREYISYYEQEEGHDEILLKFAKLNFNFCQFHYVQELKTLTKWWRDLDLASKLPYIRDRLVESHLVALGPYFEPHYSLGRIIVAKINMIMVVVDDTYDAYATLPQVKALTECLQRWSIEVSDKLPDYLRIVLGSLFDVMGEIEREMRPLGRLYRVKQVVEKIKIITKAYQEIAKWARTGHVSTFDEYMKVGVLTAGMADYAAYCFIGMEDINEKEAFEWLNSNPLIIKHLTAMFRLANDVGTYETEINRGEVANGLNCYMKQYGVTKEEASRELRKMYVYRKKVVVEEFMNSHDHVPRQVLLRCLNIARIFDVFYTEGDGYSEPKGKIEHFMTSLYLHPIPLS

AtTPS18 = AtTPS18 (Arabidopsis thaliana, UniProt Q9LUE2); experiment: X-ray crystal structure; format: binding; conditions: AtTPS18-PP complex
Sequence of AtTPS18 (Q9LUE2 52-605): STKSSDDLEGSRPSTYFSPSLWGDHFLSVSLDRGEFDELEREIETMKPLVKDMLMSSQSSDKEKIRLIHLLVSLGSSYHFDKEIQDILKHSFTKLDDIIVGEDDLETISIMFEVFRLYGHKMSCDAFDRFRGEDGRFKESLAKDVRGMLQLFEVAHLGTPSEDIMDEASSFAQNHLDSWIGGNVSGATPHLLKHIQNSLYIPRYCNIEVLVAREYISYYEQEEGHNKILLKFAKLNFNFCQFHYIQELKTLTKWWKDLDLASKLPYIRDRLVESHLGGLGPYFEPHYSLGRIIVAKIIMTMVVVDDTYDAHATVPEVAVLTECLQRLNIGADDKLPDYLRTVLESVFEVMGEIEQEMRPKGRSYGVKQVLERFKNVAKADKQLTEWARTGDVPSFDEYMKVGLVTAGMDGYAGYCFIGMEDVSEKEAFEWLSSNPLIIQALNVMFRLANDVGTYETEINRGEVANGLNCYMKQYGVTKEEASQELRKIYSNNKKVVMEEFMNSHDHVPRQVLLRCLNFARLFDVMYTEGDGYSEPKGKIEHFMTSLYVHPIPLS

Sequence of AtTPS19 (Q9LUE0 49-602): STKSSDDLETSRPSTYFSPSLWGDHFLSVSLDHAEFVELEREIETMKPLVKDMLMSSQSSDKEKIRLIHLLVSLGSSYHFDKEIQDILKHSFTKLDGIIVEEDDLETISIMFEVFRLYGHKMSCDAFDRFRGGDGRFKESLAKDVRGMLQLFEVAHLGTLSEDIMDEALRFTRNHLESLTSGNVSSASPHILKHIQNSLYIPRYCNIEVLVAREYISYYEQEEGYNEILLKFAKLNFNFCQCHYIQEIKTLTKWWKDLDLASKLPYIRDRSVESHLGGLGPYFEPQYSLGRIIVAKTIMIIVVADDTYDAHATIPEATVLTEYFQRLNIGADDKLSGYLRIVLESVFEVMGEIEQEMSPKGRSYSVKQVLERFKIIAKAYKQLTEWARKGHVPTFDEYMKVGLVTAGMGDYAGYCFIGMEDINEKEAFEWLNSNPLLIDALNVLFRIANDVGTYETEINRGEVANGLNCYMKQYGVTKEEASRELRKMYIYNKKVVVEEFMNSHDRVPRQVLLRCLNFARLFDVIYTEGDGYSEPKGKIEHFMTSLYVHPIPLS

CC(C)=CCC/C(C)=C/CC/C(C)=C/CC/C(C)=C/CC/C(C)=C/COP(=O)(O)OP(=O)(O)O [GFPP] was tested, and the “GC-MS of products in E. coli” value (AtTPS19) was “C8 (the main product of AtTPS19)”, the “GC-MS of products in E. coli” value (AtTPS22) was “sesterterpenes ... were detected in transgenic E. coli strains harboring AtTPS06, AtTPS22, or AtTPS29” and the “GC-MS of products in E. coli” value (AtTPS06) was “AtTPS06, a multi-product enzyme, produces more than ten different sesterterpenes from GFPP”. For the same molecule, the “GC-MS of products in E. coli” value (AtTPS29) was “sesterterpenes ... were detected in transgenic E. coli strains harboring AtTPS06, AtTPS22, or AtTPS29”.
In the case of O=P(O)(O)OP(=O)(O)O [PP], the X-ray crystal structure (AtTPS18) is reported as “AtTPS18-PP (PDB code 7BZB)”.
